Measurements taken from patent publication US9120787B2, “HIV replication inhibitors” (priority 2011, dated 2015).
“And” between values parts separate entries of the source, which are not always exact repeats. Equal values may be shown once. Read-outs that look alike come from different tables or passages of the source.

Tests used:
[1] = biological target: T1, recombinant HIVNL4-3 heterodimeric (p66/p51) Reverse Transcriptase (Human immunodeficiency virus type 1 group M subtype B, UniProt P12497); experiment: Biochemical reverse transcriptase assay; parameters: species or system HIV-1; conditions: 5'LTR template/primer
T1 construct: Purified recombinant HIVNL4-3 heterodimeric (p66/p51) Reverse Transcriptase (RT)
Experimental: Enantiomers of Example 34 were created and utilized to assess the activity of the compounds in a biochemical reverse transcriptase assay. Purified recombinant HIVNL4-3 heterodimeric (p66/p51) Reverse Transcriptase (RT) was used in experiments. RT activity was determined by the incorporation of radiolabeled deoxyribonucleotides into the newly synthesized DNA strand. The standard RT reaction mixture contained a synthetic homopolymeric template/primer [poly(rA)/oligo(dT)] or in vitro transcribed viral RNA derived from the HIV-1NL4-3 5′-LTR region (nucleotide residues 454 to 652) and a primer complementary to the primer binding site (PBS, nucleotide residues 636 to 652), radiolabeled deoxyribonucleotide, dNTPs and RT. The reaction was carried out in a volume of 40 μl containing 50 mM Tris HCl, pH 7.8, 50 mM KCl, 5 mM MgCl2, 1 mM DTT, 50 μM each of dATP, dCTP, dGTP, 50 nM dTTP, 1 μCi of [^3H] dTTP (70-90 Ci/mM) and 5 nM template/primer. The reaction was initiated by the addition of 10 nM RT. For compound screening, serially diluted test articles were added to the reaction followed by the addition of RT. The reaction mixture was incubated at 37° C. for 1 h, then quenched by the addition of ice-cold trichloroacetic acid (TCA) to the final concentration of 10%. The plate was incubated at 4° C. for 1 h to precipitate the synthesized DNA, then rinsed 3-times with 10% TCA and 1 time with 70% ethanol. After addition of 25 μl scintillation fluid to completely dried wells, radioactivity is counted by MicroBeta scintillation counter. The reduction of radioactivity represents the potency of compound inhibition.

[2] = Cytotoxicity by MTS staining in PBMCs; format: cell-based; conditions: human, peripheral blood mononuclear cells (PBMC), read-out: TC50
Experimental: (§1) Cytotoxicity was assessed by MTS staining. At assay end-point, PBMC were stained with the addition of […] of the soluble tetrazolium-based dye MTS to determine cell viability and quantify compound toxicity. The plates were incubated 4 to 6 hrs at 37° C. Following incubation, the activity was assessed by reading absorbance values at 490/650 nm.

HIV-1Ba-L [3] = experiment: HIV-1Ba-L replication in PBMCs (supernatant RT end-point)
How it was run: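 Pooled PHA-stimulated human PBMCs (5×10^4 cells/well) were infected with HIV-1Ba-L at MOI 0.1 with nine ½-log compound dilutions and cultured seven days at 37° C. Supernatant RT activity was measured by ^3H-TTP incorporation on poly rA:oligo dT (60 minutes, 37° C) and counted by scintillation.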

MAGI-CCR5 cells = experiment: Cytotoxicity by MTS staining in uninfected MAGI-CCR5 cells; format: cell-based; conditions: 48 hours, read-out: TC50 (the source's name)
How it was run: (§2)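 Uninfected MAGI-CCR5 cells (HeLa-CD4-LTR-β-gal derived, expressing CD4/CCR5) plated at 1.0×10^4 cells/well the day before, then exposed to compounds at six concentrations in triplicate alongside parallel infected assays. Viability read by MTS staining.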

HIV-1Ba-L [4] = experiment: Inhibition of virus replication in MAGI-CCR5 cells (β-galactosidase reporter); format: cell-based; conditions: HIV-1Ba-L in MAGI-CCR5 cells; for IC50: 48 hours, β-galactosidase reporter expression, read-out: IC50
How it was run: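 HeLa-derived MAGI-CCR5 cells (high CD4/CCR5, HIV-1 LTR-driven β-galactosidase) plated at 1.0×10^4 cells/well the day before infection with HIV-1Ba-L. Compounds tested at six concentrations in triplicate, with parallel uninfected plates for cytotoxicity.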

[5] = Cytotoxicity by MTS staining in uninfected MAGI-CCR5 cells; format: cell-based; conditions: human, read-out: TC50
How it was run: as §2

HIV-1 K103N, Y181C (A17) = HIV-1 K103N, Y181C (A17) replication in PBMCs; format: cell-based; conditions: for effect of RT changes K103N and Y181C on anti-viral activity: virus with K103 to Asparagine and Y181 to cysteine
Excerpt: In another embodiment of the present disclosure compounds are provided which inhibit the replication of HIV strains resistant to NNRTIs. Compounds in this disclosure inhibit, A17, an HIV-1 virus with mutations in the RT non-nucleoside binding pocket, K103N and Y181C, in a dose-dependent susceptibility testing manner.
The asparagine variation at residue 103 and the cysteine variation at residue 181 are known to inhibit the activity of the NNRTI's.
Evaluation Dihydropyrimidines vs. HIV-1Ba-L and HIV-1 K103N, Y181C in PBMCs

[6] = test system: peripheral blood mononuclear cells (PBMC); experiment: Cytotoxicity by MTS staining in PBMCs; format: cell-based; conditions: read-out: TC50 (the source's name)
Experimental: as §1

[7] = 5'LTR/dPR IC50, HIV RT biochemical assay
[8] = Human immunodeficiency virus 1, PBMC, 168 h
[9] = Human immunodeficiency virus 1, PBMC
[10] = Virus A17 (K103N, Y181C) in PBMCs
[11] = Human immunodeficiency virus 1, BAL, PBMC
[12] = Virus Ba-L in PBMCs (Ba-L vs A17 comparison)
[13] = HIV-1Ba-L in PBMCs, seven days, RT end-point

Row | Structure (SMILES) | CC50 at 7 days ([2]; MTS staining) | TI (TC50/IC50) (HIV-1Ba-L [3]; HIV-1Ba-L in PBMCs) | IC50 (HIV-1Ba-L [3]; [8]) | TI (TC50/IC50) (HIV-1Ba-L [4]) | CC50 at 48 h [5] | IC50 (HIV-1 K103N, Y181C (A17); [9]) | TI (TC50/IC50) (HIV-1 K103N, Y181C (A17); [10]) | CC50 at 7 days ([2]; A17 line of the table) | CC50 at 7 days ([2]; Ba-L line of the table) | IC50 (HIV-1Ba-L [4]; Human immunodeficiency virus 1) | IC50 (HIV-1Ba-L [3]; [11]) | TI (TC50/IC50) (HIV-1Ba-L [3]; [12]) | also measured
1 | CC1=C(c2nc(-c3ccc(C#N)cc3)cs2)C(c2cccc(O)c2)NC(=O)N1 (single isomer, unassigned) [Example 34 (enantiomer)] | ≥ 100 µM | D (D < 10.0) | 5 to 100 µM |  |  |  |  |  |  |  |  |  | IC50 [1, 7]: > 100 µM
2 | CC1=C(c2nc(-c3ccc(C#N)cc3C)cs2)C(c2cccnc2F)NC(=O)N1 (centres unmarked) [Example 83] |  |  |  | B (B < 100.0-50.0) |  |  |  |  |  |  |  |  | CC50 (MAGI-CCR5 cells): < 50 µM; IC50 (HIV-1Ba-L [4]): < 1 µM
3 | Cc1cn([C@H]2C[C@H](N=[N+]=[N-])[C@@H](COP(=O)(O)OP(=O)(O)OP(=O)(O)O)O2)c(=O)[nH]c1=O [AZT-TP] |  |  |  |  |  |  |  |  |  |  |  |  | IC50 ([1]; HIV RT biochemical assay, read-out: 5'LTR/dPR IC50): 0.009 µM and 0.01 µM
4 | COc1ccc(-c2csc(C3=C(C)NC(=O)NC3c3ccc(F)c([N+](=O)[O-])c3)n2)cc1 (centres unmarked) [Example 42] | ≥ 100 µM | D (D < 10.0) | 5 to 100 µM | D (D < 10.0) | ≥ 100 µM | 5 to 100 µM | D (D < 10.0) | ≥ 100 µM | ≥ 100 µM | > 100 µM | 5 to 100 µM | D (D < 10.0) | 
5 | CC1=C(c2nc(-c3ccc(C#N)cc3C)cs2)C(c2cccnc2F)NC(=O)N1 (centres unmarked) [Example 86] | ≥ 100 µM | A (A = TI (TC50/IC50) ≧100.0) | < 1 µM | A (A = TI (TC50/IC50) ≧ 100.0) |  | 5 to 100 µM | D (D < 10.0) | ≥ 100 µM | ≥ 100 µM |  | < 1 µM | A (A = TI (TC50/IC50) ≧ 100.0) | CC50 (MAGI-CCR5 cells): ≥ 100 µM; IC50 (HIV-1Ba-L [4]): < 1 µM
6 | Cc1cn([C@H]2C[C@H](N=[N+]=[N-])[C@@H](CO)O2)c(=O)[nH]c1=O [AZT, reference compound] |  | >54.9 |  | >36.5 |  |  | >629.0 |  |  |  |  | >88.6 | CC50 (MAGI-CCR5 cells): > 1 µM; IC50 (HIV-1 K103N, Y181C (A17); Virus A17 (K103N, Y181C) in PBMCs, read-out: IC50): 0.0016 µM; CC50 ([6]; A17 line of the table): > 1 µM; CC50 ([6]; Ba-L line of the table): > 1 µM; CC50 ([6]; MTS staining): > 1 µM; IC50 (HIV-1Ba-L [4]): 0.08 µM; IC50 (HIV-1Ba-L [3]; [13]): 0.02 µM; IC50 (HIV-1Ba-L [3]; [12]): 0.011 µM
7 | Cc1ccc(-c2ccc3c(c2)C=C(C(=O)Nc2ccc(C[N+](C)(C)C4CCOCC4)cc2)CCC3)cc1.[Cl-] [TAK 779, reference compound] |  | >29.9 |  | 2902.7 |  |  |  |  |  |  |  |  | CC50 (MAGI-CCR5 cells): > 10 µM; CC50 ([6]; MTS staining): > 10 µM; IC50 (HIV-1Ba-L [4]): 0.004 µM; IC50 (HIV-1Ba-L [3]; [13]): 0.35 µM
8 | Cc1ccnc2c1NC(=O)c1cccnc1N2C1CC1 [Nevirapine] |  |  |  |  |  |  |  |  |  |  |  |  | IC50 [1, 7]: 0.29 µM and 0.19 µM
9 | CC1=C(c2nc(-c3ccc(C#N)cc3)cs2)C(c2cc3ccccc3n2C)NC(=O)N1 (centres unmarked) [Example 11] | ≥ 100 µM | A (A = TI (TC50/IC50) ≧100.0) | < 1 µM | A (A = TI (TC50/IC50) ≧ 100.0) | ≥ 100 µM | > 100 µM | D (D < 10.0) | ≥ 100 µM | ≥ 100 µM | < 1 µM | < 1 µM | A (A = TI (TC50/IC50) ≧ 100.0) | effect of RT changes K103N and Y181C on anti-viral activity (HIV-1 K103N, Y181C (A17)): inhibit the anti-viral activity
10 | CC1=C(c2nc(-c3ccc(C#N)cc3)cs2)C(c2cc3ccccc3[nH]2)NC(=O)N1 (centres unmarked) [Example 10] | 50 to 100 µM | C (C < 50.0-10.0) | 1 to 5 µM | C (C < 50.0 to 10.0) | < 50 µM | 5 to 100 µM | D (D < 10.0) | ≥ 100 µM | ≥ 100 µM | 1 to 5 µM | 1 to 5 µM | B (B < 100.0-50.0) | 
11 | CC1=C(c2nc(-c3ccc(C#N)cc3)cs2)C(c2cccc(O)c2)NC(=O)N1 (centres unmarked) [Example 34] | 50 to 100 µM | A (A = TI (TC50/IC50) ≧100.0) | < 1 µM | A (A = TI (TC50/IC50) ≧ 100.0) | ≥ 100 µM |  |  |  |  | < 1 µM |  |  | IC50 [1, 7]: < 1 µM
12 | CC1=C(c2nc(-c3ccc(F)cc3)cs2)C(Cc2ccccc2)NC(=O)N1 (centres unmarked) [Example 89] | ≥ 100 µM | D (D < 10.0) | 5 to 100 µM | D (D < 10.0) | ≥ 100 µM | > 100 µM | D (D < 10.0) | ≥ 100 µM | ≥ 100 µM | > 100 µM | > 100 µM | D (D < 10.0) | 
13 | CC1=C(c2nc(-c3ccc(C#N)cc3)cs2)C(c2ccc(F)nc2)NC(=O)N1 (centres unmarked) [Example 19] | ≥ 100 µM | A (A = TI (TC50/IC50) ≧100.0) | < 1 µM | B (B < 100.0-50.0) | ≥ 100 µM | > 100 µM | D (D < 10.0) | ≥ 100 µM | ≥ 100 µM | 1 to 5 µM | < 1 µM | A (A = TI (TC50/IC50) ≧ 100.0) | effect of RT changes K103N and Y181C on anti-viral activity (HIV-1 K103N, Y181C (A17)): inhibit the anti-viral activity
14 | Cc1cc(C#N)cc(C)c1Oc1nc(Nc2ccc(C#N)cc2)nc(N)c1Br [TMC-125, Etravirine, reference compound] | > 1 µM | >325.0 |  | >37,500.0 | > 100 µM | 0.01 µM | >101.0 | > 1 µM | > 1 µM | 0.003 µM |  | >402.0 | IC50 [1, 7]: 0.19 µM
15 | CC1=C(c2nc(-c3ccc(C#N)cc3)cs2)C(c2ccc(Br)nc2)NC(=O)N1 (centres unmarked) [Example 93] | ≥ 100 µM | A (A = TI (TC50/IC50) ≧100.0) | < 1 µM | A (A = TI (TC50/IC50) ≧ 100.0) | ≥ 100 µM | > 100 µM | D (D < 10.0) | ≥ 100 µM | ≥ 100 µM | < 1 µM | < 1 µM | A (A = TI (TC50/IC50) ≧ 100.0) | 
16 | CC1=C(c2nc(-c3ccc(C#N)cc3)cs2)C(c2cnc3ccccc3n2)NC(=O)N1 (centres unmarked) [Example 21] | ≥ 100 µM | D (D < 10.0) | > 100 µM | D (D < 10.0) | ≥ 100 µM | > 100 µM | D (D < 10.0) | ≥ 100 µM | ≥ 100 µM | > 100 µM | > 100 µM | D (D < 10.0) | 
